Where two headings read alike, the source gives them in different places.
Experiments:
[1] = Ester metabolism stabilization test: human liver stabilization test; format: in vitro ADME; details: human liver S9 with NADPH, 37°C, 30 minutes
Protocol: A reaction solution prepared by mixing 5 µL of human liver S9 (manufactured by Xenotech, 20 mg/mL), 20 µL of 500 mmol/L Kpi (pH7.4), 40 µL of 5 mmol/L NADPH (manufactured by Oriental Yeast Co., Ltd.) aqueous solution, and 133 µL of ion exchange water was added to 2 µL of a DMSO solution containing 100 µmol/L test substance, and the thus obtained mixture was then incubated at 37°C for 30 minutes. After completion of the incubation, 600 µL of acetonitrile was added to the reaction solution, so that the metabolic reaction was terminated. The residual percentage of the test substance was measured using LC (LC-20A manufactured by Shimadzu Corporation) and -MS (API4000 manufactured by AB Sciex).

[2] = Ester metabolism stabilization test: stabilization in human plasma test; format: in vitro ADME; details: 37°C, 30 minutes
Protocol: 198 µL of human plasma (manufactured by Cosmo Bio) was added to 2 µL of a DMSO solution containing 100 µmol/L test substance, and the obtained mixture was then incubated at 37°C for 30 minutes. After completion of the incubation, 600 µL of acetonitrile was added to the reaction solution, so that the metabolic reaction was terminated. The residual percentage of the test substance was measured using LC (LC-20A manufactured by Shimadzu Corporation) and -MS (API4000 manufactured by AB Sciex).

human FXIa = human FXIa (Homo sapiens, UniProt P03951); experiment: In vitro activated factor XI (FXIa) inhibition test; format: biochemical
Protocol: To the substrate, S-2366 (pyroGlu-Pro-Arg-pNA•HCl) was added to a final concentration of 300 µmol/L. After the reaction had progressed, the absorbance at OD 405 nm was measured. […]

[3] = 0.35 µg/mL human FXIa, substrate S-2366 300 µmol/L, 37°C, 10 minutes, OD 405 nm, read-out: FXIa inhibitory activity IC50

human FXIa, sequence (P03951 388-625 limits assumed): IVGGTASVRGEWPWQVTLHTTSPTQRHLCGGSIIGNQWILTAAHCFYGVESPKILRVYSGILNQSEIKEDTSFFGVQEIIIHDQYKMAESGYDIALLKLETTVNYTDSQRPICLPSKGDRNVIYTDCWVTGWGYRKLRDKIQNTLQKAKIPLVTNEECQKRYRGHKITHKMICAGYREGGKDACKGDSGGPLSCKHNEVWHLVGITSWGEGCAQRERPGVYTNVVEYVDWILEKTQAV
human FXIa, sequence (P03951 19-387 partner limits assumed): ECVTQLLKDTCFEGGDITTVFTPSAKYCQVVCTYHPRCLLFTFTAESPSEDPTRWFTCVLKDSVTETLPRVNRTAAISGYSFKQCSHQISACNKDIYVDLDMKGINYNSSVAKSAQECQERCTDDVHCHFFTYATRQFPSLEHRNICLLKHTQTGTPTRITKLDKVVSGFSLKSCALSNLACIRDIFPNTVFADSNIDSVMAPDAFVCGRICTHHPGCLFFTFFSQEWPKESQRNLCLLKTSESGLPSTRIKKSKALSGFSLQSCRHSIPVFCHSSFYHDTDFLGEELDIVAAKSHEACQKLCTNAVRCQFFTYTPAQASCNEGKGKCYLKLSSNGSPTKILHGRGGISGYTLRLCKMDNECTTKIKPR

Compound | Residual percentage (%) Human liver S9 [1] [%] | Residual percentage (%) Human plasma [2] [%] | IC50 (human FXIa; [3]) [µM] | IC50 (human FXIa) [µM]
COC1CCC([C@@H]2CCN(C(=O)[C@H]3CC[C@H]([C@H](N)CF)CC3)[C@@H]2C(=O)Nc2ccc3oc(C(=O)OCC(C)C)cc3c2)CC1 (stereo partly drawn) [compound 201] | 45 | 85 | 4.1 | 
Cc1oc(=O)oc1COC(=O)c1cc2cc(NC(=O)[C@@H]3[C@@H](c4ccccc4)CCN3C(=O)[C@H]3CC[C@H]([C@H](N)CF)CC3)ccc2[nH]1 [compound 171] | 18 | <1 | 0.3 | 
COCCCOC(=O)c1cc2cc(NC(=O)[C@@H]3[C@H](C4CCCCC4)CCN3C(=O)[C@H]3CC[C@H]([C@H](N)CF)CC3)ccc2o1 [compound 82] | 5.8 | 92 |  | 
N[C@H](CF)[C@H]1CC[C@H](C(=O)N2CC[C@@H](C3CCCCC3)[C@H]2C(=O)Nc2ccc3oc(C(=O)OCC4CCOCC4)cc3c2)CC1 [compound 141] | 17 | 94 |  | 3.45
CC(OC(=O)OC1CCCCC1)OC(=O)c1cc2cc(NC(=O)[C@@H]3[C@@H](c4ccccc4)CCN3C(=O)[C@H]3CC[C@H]([C@H](N)CF)CC3)ccc2[nH]1 (stereo partly drawn) [compound 120] | 4.9 | 65 |  | 
CCC(=O)OC(OC(=O)c1cc2cc(NC(=O)[C@@H]3[C@@H](c4ccccc4)CCN3C(=O)[C@H]3CC[C@H]([C@H](N)CF)CC3)ccc2[nH]1)C(C)C (stereo partly drawn) [compound 125] | 5.6 | 86 |  | 

From patent publication EP2876105A1, “1-(CYCLOALKYL-CARBONYL)PROLINE DERIVATIVE” (Sumitomo Dainippon Pharma Co., Ltd., priority 2012, dated 2014)
